What was measured:
PANC-1 = test: PANC-1 cell line Proliferation assay; format: functional, Homo sapiens; conditions: time 3 day
IMR-5/75 = test: IMR-5/75 cell line Proliferation assay; format: functional, Homo sapiens; conditions: time 6 day
[1] = target: T1, Mitogen-activated protein kinase kinase kinase 5 (Homo sapiens) (UniProt Q99683); test: ASK1(h) Eurofins kinase panel; conditions: Compound concentration 1.0 uM
T1 sequence (whole entry): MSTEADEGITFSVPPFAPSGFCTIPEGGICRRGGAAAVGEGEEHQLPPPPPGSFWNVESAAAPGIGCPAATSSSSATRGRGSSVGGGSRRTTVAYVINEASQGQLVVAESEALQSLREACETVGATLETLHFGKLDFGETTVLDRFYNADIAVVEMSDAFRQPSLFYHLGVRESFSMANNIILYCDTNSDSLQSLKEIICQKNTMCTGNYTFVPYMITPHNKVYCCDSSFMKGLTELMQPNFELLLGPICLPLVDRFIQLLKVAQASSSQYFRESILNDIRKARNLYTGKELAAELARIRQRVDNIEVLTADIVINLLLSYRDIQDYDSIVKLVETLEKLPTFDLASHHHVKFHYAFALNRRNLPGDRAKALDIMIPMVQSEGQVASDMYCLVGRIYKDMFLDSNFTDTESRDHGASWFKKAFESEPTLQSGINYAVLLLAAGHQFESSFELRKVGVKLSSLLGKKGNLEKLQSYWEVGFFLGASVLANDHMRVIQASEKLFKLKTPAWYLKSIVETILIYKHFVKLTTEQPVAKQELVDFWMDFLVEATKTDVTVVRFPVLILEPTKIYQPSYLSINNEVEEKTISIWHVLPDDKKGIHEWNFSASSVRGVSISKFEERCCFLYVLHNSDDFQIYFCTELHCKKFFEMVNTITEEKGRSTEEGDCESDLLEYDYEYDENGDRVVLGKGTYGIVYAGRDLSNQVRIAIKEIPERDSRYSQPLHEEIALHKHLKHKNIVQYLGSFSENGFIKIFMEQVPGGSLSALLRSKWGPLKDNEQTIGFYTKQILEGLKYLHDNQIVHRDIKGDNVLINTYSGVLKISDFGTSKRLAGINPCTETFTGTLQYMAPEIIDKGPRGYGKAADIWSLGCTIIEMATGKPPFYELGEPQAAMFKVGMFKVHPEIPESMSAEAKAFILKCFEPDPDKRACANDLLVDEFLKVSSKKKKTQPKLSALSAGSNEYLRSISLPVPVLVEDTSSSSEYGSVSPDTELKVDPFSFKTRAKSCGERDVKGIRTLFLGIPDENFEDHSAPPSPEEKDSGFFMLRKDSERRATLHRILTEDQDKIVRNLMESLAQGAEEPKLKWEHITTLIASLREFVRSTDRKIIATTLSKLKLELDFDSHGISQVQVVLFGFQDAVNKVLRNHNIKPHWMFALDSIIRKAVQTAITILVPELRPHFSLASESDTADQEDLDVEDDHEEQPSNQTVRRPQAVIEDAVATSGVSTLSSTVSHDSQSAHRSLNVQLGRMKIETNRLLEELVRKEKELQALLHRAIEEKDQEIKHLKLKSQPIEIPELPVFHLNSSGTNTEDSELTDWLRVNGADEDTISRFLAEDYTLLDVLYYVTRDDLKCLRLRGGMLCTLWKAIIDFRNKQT

[2] = target: T2, Serine/threonine-protein kinase 3 (Homo sapiens) (UniProt Q13188); test: MST2(h) Eurofins kinase panel; conditions: Compound concentration 1.0 uM
T2 sequence (whole entry): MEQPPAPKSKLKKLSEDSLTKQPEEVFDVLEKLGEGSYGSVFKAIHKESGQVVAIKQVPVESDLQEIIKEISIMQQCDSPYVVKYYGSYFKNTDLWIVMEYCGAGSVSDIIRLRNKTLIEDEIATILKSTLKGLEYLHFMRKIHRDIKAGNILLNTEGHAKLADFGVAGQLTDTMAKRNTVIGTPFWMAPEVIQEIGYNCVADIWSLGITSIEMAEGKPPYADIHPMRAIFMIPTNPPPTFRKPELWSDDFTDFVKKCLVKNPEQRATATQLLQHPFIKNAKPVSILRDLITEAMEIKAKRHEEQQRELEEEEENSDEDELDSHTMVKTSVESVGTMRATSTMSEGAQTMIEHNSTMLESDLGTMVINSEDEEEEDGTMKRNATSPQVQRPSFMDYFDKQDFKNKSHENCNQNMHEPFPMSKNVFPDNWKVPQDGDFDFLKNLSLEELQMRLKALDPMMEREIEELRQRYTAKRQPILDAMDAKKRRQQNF

[3] = target: Mitogen-activated protein kinase kinase kinase 20 (Homo sapiens) (UniProt Q9NYL2); test: ZAK(h) Eurofins kinase panel; conditions: Compound concentration 1.0 uM
[4] = target: T3, Dual specificity tyrosine-phosphorylation-regulated kinase 2 (Homo sapiens) (UniProt Q92630); test: DYRK2(h) Eurofins kinase panel; conditions: Compound concentration 1.0 uM
T3 sequence (whole entry): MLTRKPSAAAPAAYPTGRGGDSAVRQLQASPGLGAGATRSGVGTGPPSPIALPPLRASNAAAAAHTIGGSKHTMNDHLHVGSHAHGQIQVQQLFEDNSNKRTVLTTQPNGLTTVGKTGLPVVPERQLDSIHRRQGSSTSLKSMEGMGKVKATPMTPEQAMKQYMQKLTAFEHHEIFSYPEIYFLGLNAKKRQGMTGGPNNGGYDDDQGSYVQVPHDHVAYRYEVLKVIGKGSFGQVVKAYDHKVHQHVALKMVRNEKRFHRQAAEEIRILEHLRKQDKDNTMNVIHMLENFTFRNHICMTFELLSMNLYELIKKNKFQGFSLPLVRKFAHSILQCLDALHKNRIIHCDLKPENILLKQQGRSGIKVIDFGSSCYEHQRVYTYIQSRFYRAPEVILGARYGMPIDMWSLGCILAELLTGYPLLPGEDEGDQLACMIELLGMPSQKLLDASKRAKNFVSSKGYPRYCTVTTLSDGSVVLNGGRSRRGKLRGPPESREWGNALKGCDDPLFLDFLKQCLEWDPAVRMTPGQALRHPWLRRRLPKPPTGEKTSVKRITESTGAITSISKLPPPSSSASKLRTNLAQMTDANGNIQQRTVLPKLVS

IMR-32 = test: IMR-32 cell line Proliferation assay; format: functional, Homo sapiens; conditions: time 6 day
A549 = test: A549 cell line Proliferation assay; format: functional, Homo sapiens; conditions: time 3 day
[5] = target: SRSF protein kinase 1 (Homo sapiens) (UniProt Q96SB4); test: SRPK1(h) Eurofins kinase panel; conditions: Compound concentration 1.0 uM
[6] = target: Calcium/calmodulin-dependent protein kinase type 1B (Homo sapiens) (UniProt Q6P2M8); test: CaMKIbeta(h) Eurofins kinase panel; conditions: Compound concentration 1.0 uM
[7] = target: RAC-gamma serine/threonine-protein kinase (Homo sapiens) (UniProt Q9Y243); test: PKBgamma (h) Eurofins kinase panel; conditions: Compound concentration 1.0 uM
[8] = target: Rho-associated protein kinase 1 (Homo sapiens) (UniProt Q13464); test: ROCK-I(h) Eurofins kinase panel; conditions: Compound concentration 1.0 uM
[9] = target: Hepatocyte growth factor receptor (Homo sapiens) (UniProt P08581); conditions: Compound concentration 1.0 uM
[10] = target: Serine/threonine-protein kinase MARK1 (Homo sapiens) (UniProt Q9P0L2); test: MARK1(h) Eurofins kinase panel; conditions: Compound concentration 1.0 uM
Sequence of Serine/threonine-protein kinase MARK1 (Homo sapiens) (Q9P0L2 whole entry, looked up): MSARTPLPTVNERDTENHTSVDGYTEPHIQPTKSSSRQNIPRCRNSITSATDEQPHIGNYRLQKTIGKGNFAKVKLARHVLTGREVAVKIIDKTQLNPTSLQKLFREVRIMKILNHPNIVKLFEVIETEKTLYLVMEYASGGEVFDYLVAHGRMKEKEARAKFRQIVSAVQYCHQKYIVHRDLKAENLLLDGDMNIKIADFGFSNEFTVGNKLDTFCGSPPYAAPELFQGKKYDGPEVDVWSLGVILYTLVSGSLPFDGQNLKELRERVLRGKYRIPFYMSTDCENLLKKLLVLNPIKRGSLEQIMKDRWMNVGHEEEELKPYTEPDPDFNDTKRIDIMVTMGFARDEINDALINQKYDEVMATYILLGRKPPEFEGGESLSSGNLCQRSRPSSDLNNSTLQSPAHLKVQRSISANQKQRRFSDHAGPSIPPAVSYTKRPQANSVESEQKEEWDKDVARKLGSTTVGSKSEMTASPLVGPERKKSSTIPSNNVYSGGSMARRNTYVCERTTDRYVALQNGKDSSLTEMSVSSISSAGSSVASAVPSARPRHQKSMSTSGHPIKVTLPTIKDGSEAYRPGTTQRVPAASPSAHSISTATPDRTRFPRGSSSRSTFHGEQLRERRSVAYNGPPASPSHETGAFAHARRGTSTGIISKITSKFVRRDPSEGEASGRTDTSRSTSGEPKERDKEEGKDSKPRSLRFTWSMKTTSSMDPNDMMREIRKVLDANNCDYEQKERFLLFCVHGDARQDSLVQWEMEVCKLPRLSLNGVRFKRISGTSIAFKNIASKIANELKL

Sequence of Mitogen-activated protein kinase kinase kinase 20 (Homo sapiens) (Q9NYL2 2-800 limits assumed): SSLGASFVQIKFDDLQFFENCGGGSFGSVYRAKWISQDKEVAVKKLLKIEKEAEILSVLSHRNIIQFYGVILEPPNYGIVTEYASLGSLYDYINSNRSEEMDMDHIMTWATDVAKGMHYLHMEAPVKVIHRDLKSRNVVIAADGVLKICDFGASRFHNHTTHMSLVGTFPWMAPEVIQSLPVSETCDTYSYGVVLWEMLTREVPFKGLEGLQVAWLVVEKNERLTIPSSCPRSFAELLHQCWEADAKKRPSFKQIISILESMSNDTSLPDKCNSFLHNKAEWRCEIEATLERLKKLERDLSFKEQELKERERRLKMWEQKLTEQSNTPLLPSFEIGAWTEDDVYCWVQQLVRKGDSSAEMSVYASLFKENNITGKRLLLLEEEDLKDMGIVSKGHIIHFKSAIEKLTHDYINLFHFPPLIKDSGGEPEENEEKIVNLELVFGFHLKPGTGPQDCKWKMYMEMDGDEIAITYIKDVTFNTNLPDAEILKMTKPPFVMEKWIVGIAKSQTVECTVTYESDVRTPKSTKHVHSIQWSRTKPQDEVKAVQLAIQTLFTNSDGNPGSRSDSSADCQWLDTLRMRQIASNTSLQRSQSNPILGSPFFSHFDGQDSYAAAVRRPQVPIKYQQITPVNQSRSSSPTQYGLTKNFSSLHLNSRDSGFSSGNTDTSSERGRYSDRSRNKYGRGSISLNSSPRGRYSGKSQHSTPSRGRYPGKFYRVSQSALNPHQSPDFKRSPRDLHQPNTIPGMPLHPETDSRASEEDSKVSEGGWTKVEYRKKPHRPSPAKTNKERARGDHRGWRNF
Sequence of Hepatocyte growth factor receptor (Homo sapiens) (P08581 whole entry): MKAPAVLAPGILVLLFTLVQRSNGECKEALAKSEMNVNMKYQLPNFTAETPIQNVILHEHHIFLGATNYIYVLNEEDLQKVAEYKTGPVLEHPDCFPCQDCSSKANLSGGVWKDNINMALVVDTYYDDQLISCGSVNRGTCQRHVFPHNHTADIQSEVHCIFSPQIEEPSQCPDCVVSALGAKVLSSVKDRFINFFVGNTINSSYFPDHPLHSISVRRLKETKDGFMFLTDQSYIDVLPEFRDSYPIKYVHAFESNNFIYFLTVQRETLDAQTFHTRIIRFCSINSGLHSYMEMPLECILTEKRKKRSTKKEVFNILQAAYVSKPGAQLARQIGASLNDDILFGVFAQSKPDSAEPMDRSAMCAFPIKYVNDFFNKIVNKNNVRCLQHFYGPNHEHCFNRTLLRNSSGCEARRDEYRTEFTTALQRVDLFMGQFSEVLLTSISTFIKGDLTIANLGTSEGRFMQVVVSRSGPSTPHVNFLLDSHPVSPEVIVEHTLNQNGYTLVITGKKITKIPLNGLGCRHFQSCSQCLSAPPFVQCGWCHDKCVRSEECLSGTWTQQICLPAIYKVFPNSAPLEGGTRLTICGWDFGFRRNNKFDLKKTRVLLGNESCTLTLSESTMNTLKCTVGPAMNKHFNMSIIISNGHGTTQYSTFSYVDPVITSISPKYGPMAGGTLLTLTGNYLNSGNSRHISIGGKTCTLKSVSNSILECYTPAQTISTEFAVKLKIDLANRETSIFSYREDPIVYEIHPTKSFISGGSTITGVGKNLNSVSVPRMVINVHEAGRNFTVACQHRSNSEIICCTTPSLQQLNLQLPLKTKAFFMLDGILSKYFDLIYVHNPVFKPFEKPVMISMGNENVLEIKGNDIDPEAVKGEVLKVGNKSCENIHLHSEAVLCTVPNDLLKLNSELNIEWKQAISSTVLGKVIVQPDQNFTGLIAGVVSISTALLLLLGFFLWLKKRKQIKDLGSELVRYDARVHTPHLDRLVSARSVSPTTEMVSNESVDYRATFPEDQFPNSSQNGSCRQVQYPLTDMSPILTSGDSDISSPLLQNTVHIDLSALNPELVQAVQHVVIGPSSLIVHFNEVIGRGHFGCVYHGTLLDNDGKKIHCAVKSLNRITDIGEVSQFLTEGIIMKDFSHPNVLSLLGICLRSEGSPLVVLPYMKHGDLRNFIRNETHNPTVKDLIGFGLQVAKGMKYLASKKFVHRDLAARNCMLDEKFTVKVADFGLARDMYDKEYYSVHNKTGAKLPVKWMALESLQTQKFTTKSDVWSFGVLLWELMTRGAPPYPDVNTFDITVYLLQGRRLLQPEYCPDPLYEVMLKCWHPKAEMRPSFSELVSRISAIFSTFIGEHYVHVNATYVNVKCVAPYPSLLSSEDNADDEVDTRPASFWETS
Sequence of Calcium/calmodulin-dependent protein kinase type 1B (Homo sapiens) (Q6P2M8 whole entry): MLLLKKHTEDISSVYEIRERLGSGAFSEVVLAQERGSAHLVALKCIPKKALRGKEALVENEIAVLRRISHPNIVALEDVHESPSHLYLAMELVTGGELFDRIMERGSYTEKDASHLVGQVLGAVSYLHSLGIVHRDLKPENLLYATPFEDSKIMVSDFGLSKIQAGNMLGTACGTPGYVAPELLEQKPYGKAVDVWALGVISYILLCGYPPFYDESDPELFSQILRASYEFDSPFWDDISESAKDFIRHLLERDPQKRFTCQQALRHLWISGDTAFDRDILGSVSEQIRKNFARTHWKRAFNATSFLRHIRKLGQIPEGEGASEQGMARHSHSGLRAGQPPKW
Sequence of SRSF protein kinase 1 (Homo sapiens) (Q96SB4 whole entry): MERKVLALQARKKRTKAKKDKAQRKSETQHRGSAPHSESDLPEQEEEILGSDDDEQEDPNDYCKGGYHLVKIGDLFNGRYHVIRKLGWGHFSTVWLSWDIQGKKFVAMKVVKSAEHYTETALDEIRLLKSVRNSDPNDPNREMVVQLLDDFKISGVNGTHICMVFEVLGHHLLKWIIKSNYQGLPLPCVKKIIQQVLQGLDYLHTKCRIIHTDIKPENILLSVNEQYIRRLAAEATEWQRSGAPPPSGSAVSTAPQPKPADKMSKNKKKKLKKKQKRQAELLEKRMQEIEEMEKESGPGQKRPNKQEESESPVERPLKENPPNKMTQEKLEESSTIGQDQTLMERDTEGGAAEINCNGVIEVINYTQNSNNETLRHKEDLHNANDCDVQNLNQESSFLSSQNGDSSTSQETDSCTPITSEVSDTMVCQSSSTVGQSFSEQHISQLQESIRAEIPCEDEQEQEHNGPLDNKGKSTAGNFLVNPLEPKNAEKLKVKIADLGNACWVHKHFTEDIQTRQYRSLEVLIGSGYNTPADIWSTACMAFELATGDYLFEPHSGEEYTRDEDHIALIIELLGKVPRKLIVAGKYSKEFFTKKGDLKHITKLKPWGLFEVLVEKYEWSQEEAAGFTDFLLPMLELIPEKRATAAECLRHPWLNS
Sequence of RAC-gamma serine/threonine-protein kinase (Homo sapiens) (Q9Y243 whole entry): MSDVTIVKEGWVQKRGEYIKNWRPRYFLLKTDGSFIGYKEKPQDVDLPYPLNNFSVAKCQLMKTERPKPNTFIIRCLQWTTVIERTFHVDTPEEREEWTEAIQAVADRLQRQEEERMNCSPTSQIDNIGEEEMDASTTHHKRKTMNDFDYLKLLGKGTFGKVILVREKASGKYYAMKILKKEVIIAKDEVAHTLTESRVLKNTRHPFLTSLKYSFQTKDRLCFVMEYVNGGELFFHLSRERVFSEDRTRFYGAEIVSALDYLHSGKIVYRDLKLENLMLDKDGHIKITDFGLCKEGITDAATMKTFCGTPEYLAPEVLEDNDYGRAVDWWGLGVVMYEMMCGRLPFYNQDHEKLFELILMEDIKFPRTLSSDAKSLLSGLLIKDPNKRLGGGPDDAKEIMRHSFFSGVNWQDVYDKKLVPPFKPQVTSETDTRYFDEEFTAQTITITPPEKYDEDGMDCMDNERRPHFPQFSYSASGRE

For `CCc1ccccc1C(=O)Nc1n[nH]c2c(C)c(F)c(C3C(C#N)=C(C)N(C)C(C)=C3C#N)cc12` [BAY-3827], the “Cell Proliferation IC50” value (PANC-1) was 17.1 µM, the “Cell Proliferation IC50” value (IMR-5/75) was 21.3 µM and the % residual kinase activity [1] was 99%. It also gave a % residual kinase activity [2] of 47%, a % residual kinase activity [3] of 99% and a % residual kinase activity [4] of 100%. The “Cell Proliferation IC50” value (IMR-32) was greater than 11.5 µM, the “Cell Proliferation IC50” value (A549) was 25.8 µM and the % residual kinase activity [5] was 84%. It also gave a % residual kinase activity [6] of 91%, a % residual kinase activity [7] of 78% and a % residual kinase activity [8] of 104%. For the same molecule, the % residual kinase activity [9] was 1% and the % residual kinase activity [10] was 66%.

— ChEMBL document CHEMBL4507319 (2021)
